Experimental data reported in patent publication US20230085307A1, “PYRIDAZINONE COMPOUND AND HERBICIDE” (NISSAN CHEMICAL CORPORATION, priority 2019, published 2023).

How the values were obtained:
wild oat = test: Test Example 5: herbicidal effect by foliage application, plastic box (Table 20, symbol I); type: in vivo, wild oat (Avena fatua); conditions: foliage application, evaluated three weeks after application
Procedure, shortened: (§1)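 Sow seeds spot-wise in sterilized diluvial soil; cover with ~1.5 cm soil. Grow 14 days in greenhouse, 25° C. to 30° C. Spray foliage with emulsion diluted to predetermined amount. Rate effect after 3 weeks.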

persian speedwell = test: Test Example 5: herbicidal effect by foliage application, plastic box (Table 20, symbol R); type: in vivo, Persian speedwell (Veronica persica); conditions: foliage application, evaluated three weeks after application
Procedure, shortened: as §1

southern crabgrass [1] = test: Test Example 5: herbicidal effect by foliage application, plastic box (Table 20, symbol F); type: in vivo, southern crabgrass (Digitaria ciliaris); conditions: foliage application, evaluated three weeks after application
Procedure, shortened: as §1

green foxtail [2] = test: Test Example 5: herbicidal effect by foliage application, plastic box (Table 20, symbol G); type: in vivo, green foxtail (Setaria viridis); conditions: foliage application, evaluated three weeks after application
Procedure, shortened: as §1

late watergrass = test: Test Example 1: herbicidal activity, application before weed generation under submerged conditions (Table 16, symbol A); type: in vivo, late watergrass (Echinochloa oryzicola); conditions: 320 g/ha applied herbicide
Procedure, shortened: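 Emulsion formulation, water-diluted to set dose, was put onto the flooded surface (4 cm depth, alluvial soil) the same day weeds were sown and 2.5-leaf rice transplanted. After 3 weeks at 25-30 °C under glass, each species was rated 0 (≤5% kill) to 5 (≥90% kill).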

Japanese bulrush = test: Test Example 2: herbicidal activity, application during weed generation under submerged conditions (Table 17, symbol B); type: in vivo, Japanese bulrush (Schoenoplectus juncoides); conditions: AAH 320 g/ha; application during weed generation, submerged conditions
Procedure, shortened: (§2)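 Mixed weed seedlings in alluvial soil under a 4 cm water layer, greenhouse-grown at 25–30° C. Compound given as a diluted emulsion into the floodwater at the 1–2 leaf stage; response graded after three weeks.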

blackgrass = test: Test Example 4: herbicidal effect by soil treatment (Table 19, symbol J); type: in vivo, blackgrass (Alopecurus myosuroides); conditions: amount of applied herbicide 320 g/ha
Procedure, shortened: (§3)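 Soil-surface application: an emulsion agent diluted with water to the predetermined dose is sprayed uniformly over seeds lying under roughly 1.5 cm of sterilized diluvial soil. Boxes stay in a greenhouse at 25° C. to 30° C. Three weeks later, each species is graded on previously defined criteria.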

oval-leafed pondweed = test: Test Example 2: herbicidal activity, application during weed generation under submerged conditions (Table 17, symbol C); type: in vivo, oval-leafed pondweed (Monochoria vaginalis); conditions: AAH 320 g/ha; application during weed generation, submerged conditions
Procedure, shortened: as §2

windgrass = test: Test Example 5: herbicidal effect by foliage application, plastic box (Table 20, symbol L); type: in vivo, windgrass (Apera spica-venti); conditions: foliage application, evaluated three weeks after application
Procedure, shortened: as §1

redroot pigweed = test: Test Example 4: herbicidal effect by soil treatment (Table 19, symbol N); type: in vivo, redroot pigweed (Amaranthus retroflexus); conditions: amount of applied herbicide 320 g/ha
Procedure, shortened: as §3

chickweed [3] = test: Test Example 4: herbicidal effect by soil treatment (Table 19, symbol P); type: in vivo, common chickweed (Stellaria media); conditions: amount of applied herbicide 320 g/ha
Procedure, shortened: as §3

green foxtail [4] = test: Test Example 4: herbicidal effect by soil treatment (Table 19, symbol G); type: in vivo, green foxtail (Setaria viridis); conditions: amount of applied herbicide 320 g/ha
Procedure, shortened: as §3

rice flat sedge = test: Test Example 3: herbicidal effect by foliage application, Wagner pot (Table 18, symbol E); type: in vivo, rice flat sedge (Cyperus iria); conditions: amount of applied herbicide 320 g/ha
Procedure, shortened: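 Plants were sown in alluvial soil held under 0.1–0.5 cm standing water and grown 14 days in a greenhouse at 25–30 °C. An emulsifiable formulation, water-diluted to the set dose, was then sprayed onto the foliage, and effects were scored three weeks later using previously defined criteria.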

southern crabgrass [5] = test: Test Example 4: herbicidal effect by soil treatment (Table 19, symbol F); type: in vivo, southern crabgrass (Digitaria ciliaris); conditions: amount of applied herbicide 320 g/ha
Procedure, shortened: as §3

Italian ryegrass = test: Test Example 4: herbicidal effect by soil treatment (Table 19, symbol K); type: in vivo, Italian ryegrass (Lolium multiflorum); conditions: amount of applied herbicide 320 g/ha
Procedure, shortened: as §3

chickweed [6] = test: Test Example 5: herbicidal effect by foliage application, plastic box (Table 20, symbol P); type: in vivo, common chickweed (Stellaria media); conditions: foliage application, evaluated three weeks after application
Procedure, shortened: as §1

**Q.** With `Cc1nn(C)c(=O)c(-c2c(-c3ccc(Cl)cc3F)sc3ccc(F)cc23)c1O` [2-348] as the compound, how does the “I: wild oat, herbicidal effect (criteria 0-5)” value (wild oat; AAH 320 g/ha) read?
**A.** The value was 5 (Herbicidal rate of 90% or more (almost completely withered)).

**Q.** What about the “R: persian speedwell, herbicidal effect (criteria 0-5)” value (persian speedwell; AAH 320 g/ha) of the same compound?
**A.** The value was 5 (Herbicidal rate of 90% or more (almost completely withered)).

**Q.** What about the “F: southern crabgrass, herbicidal effect (criteria 0-5)” value (southern crabgrass [1]; AAH 320 g/ha) of the same compound?
**A.** The value was 5 (Herbicidal rate of 90% or more (almost completely withered)).

**Q.** And the “G: green foxtail, herbicidal effect (criteria 0-5)” value (green foxtail [2]; AAH 320 g/ha)?
**A.** Its value is 5 (Herbicidal rate of 90% or more (almost completely withered)).

**Q.** And the “Herbicidal effect on A: late watergrass (grade 0-5)” value (late watergrass)?
**A.** The value was 2 (Herbicidal rate of 20% or more and less than 40%).

**Q.** What about the “herbicidal effect rating, B: Japanese bulrush” value (Japanese bulrush) of the same compound?
**A.** The value was 2 (Herbicidal rate of 20% or more and less than 40%).

**Q.** And the “herbicidal effect on J: blackgrass” value (blackgrass)?
**A.** The value was 0 (Herbicidal rate of 5% or less (almost no effect)).

**Q.** What about the “herbicidal effect rating, C: oval-leafed pondweed” value (oval-leafed pondweed) of the same compound?
**A.** The value was 0 (Herbicidal rate of 5% or less (almost no effect)).

**Q.** And the “L: windgrass, herbicidal effect (criteria 0-5)” value (windgrass; AAH 320 g/ha)?
**A.** The value was 5 (Herbicidal rate of 90% or more (almost completely withered)).

**Q.** And the “herbicidal effect on N: redroot pigweed” value (redroot pigweed)?
**A.** The value was 3 (Herbicidal rate of 40% or more and less than 70%).

**Q.** What about the “herbicidal effect on P: chickweed” value (chickweed [3]) of the same compound?
**A.** Its value is 3 (Herbicidal rate of 40% or more and less than 70%).

**Q.** What about the “herbicidal effect on G: green foxtail” value (green foxtail [4]) of the same compound?
**A.** The value was 4 (Herbicidal rate of 70% or more and less than 90%).

**Q.** And the “herbicidal effect on E: rice flat sedge” value (rice flat sedge)?
**A.** Its value is 5 (Herbicidal rate of 90% or more (almost completely withered)).

**Q.** And the “herbicidal effect on F: southern crabgrass” value (southern crabgrass [5])?
**A.** Its value is 1 (Herbicidal rate of 5% or more and less than 20%).

**Q.** What about the “herbicidal effect on K: Italian ryegrass” value (Italian ryegrass) of the same compound?
**A.** Its value is 2 (Herbicidal rate of 20% or more and less than 40%).

**Q.** And the “P: chickweed, herbicidal effect (criteria 0-5)” value (chickweed [6]; AAH 320 g/ha)?
**A.** Its value is 5 (Herbicidal rate of 90% or more (almost completely withered)).

**Q.** Which results are given for `CCCC(=O)Oc1c(C)nn(C)c(=O)c1-c1c(-c2cccc(F)c2)sc2ccc(F)cc12` [2-202]?
**A.** herbicidal effect on I: wild oat (criteria 0-5) (wild oat; 320 g/ha): 1 (Herbicidal rate of 5% or more and less than 20%); herbicidal effect on R: persian speedwell (criteria 0-5) (persian speedwell; 320 g/ha): 4 (Herbicidal rate of 70% or more and less than 90%); herbicidal effect on F: southern crabgrass (criteria 0-5) (southern crabgrass [1]; 320 g/ha): 3 (Herbicidal rate of 40% or more and less than 70%); herbicidal effect on G: green foxtail (criteria 0-5) (green foxtail [2]; 320 g/ha): 4 (Herbicidal rate of 70% or more and less than 90%); Herbicidal effect on A: late watergrass (grade 0-5) (late watergrass): 3 (Herbicidal rate of 40% or more and less than 70%); herbicidal effect rating, B: Japanese bulrush (Japanese bulrush): 3 (Herbicidal rate of 40% or more and less than 70%); J: blackgrass, herbicidal effect rating (blackgrass): 0 (Herbicidal rate of 5% or less (almost no effect)); herbicidal effect rating, C: oval-leafed pondweed (oval-leafed pondweed): 4 (Herbicidal rate of 70% or more and less than 90%); herbicidal effect on L: windgrass (criteria 0-5) (windgrass; 320 g/ha): 2 (Herbicidal rate of 20% or more and less than 40%); N: redroot pigweed, herbicidal effect rating (redroot pigweed): 5 (Herbicidal rate of 90% or more (almost completely withered)); P: chickweed, herbicidal effect rating (chickweed [3]): 4 (Herbicidal rate of 70% or more and less than 90%); G: green foxtail, herbicidal effect rating (green foxtail [4]): 3 (Herbicidal rate of 40% or more and less than 70%); herbicidal effect on E: rice flat sedge (rice flat sedge): 5 (Herbicidal rate of 90% or more (almost completely withered)); F: southern crabgrass, herbicidal effect rating (southern crabgrass [5]): 2 (Herbicidal rate of 20% or more and less than 40%); K: Italian ryegrass, herbicidal effect rating (Italian ryegrass): 1 (Herbicidal rate of 5% or more and less than 20%); herbicidal effect on P: chickweed (criteria 0-5) (chickweed [6]; 320 g/ha): 5 (Herbicidal rate of 90% or more (almost completely withered))
